Laboratory results from patent US11986457B2, “Nutraceutical compositions” (SpecNova LLC, priority 2021, dated 2024).

Target: Human Dopamine Transporter (DAT) (Homo sapiens, UniProt Q01959)
Assay: Human Dopamine Transporter (DAT) Binding (Antagonist Radioligand) Assay
Details: for level of inhibition in the dopamine transporter inhibitory assay: statement in words in the description
Experimental: Human Dopamine Transporter (DAT) Binding (Antagonist Radioligand) Assay
Nonspecific binding is determined in the presence of 10 μM BTCP. Following incubation, the samples are filtered rapidly under vacuum through glass fiber filters (GF/B, Packard) presoaked with 0.3% PEI and rinsed several times with ice-cold 50 mM Tris-HCl using a 96-sample cell harvester (Unifilter, Packard). The filters are dried then counted for radioactivity in a scintillation counter (Topcount, Packard) using a scintillation cocktail (Microscint 0, Packard). The results are expressed as a percent inhibition of the control radioligand specific binding.

Chain of Human Dopamine Transporter (DAT) (Q01959 whole entry): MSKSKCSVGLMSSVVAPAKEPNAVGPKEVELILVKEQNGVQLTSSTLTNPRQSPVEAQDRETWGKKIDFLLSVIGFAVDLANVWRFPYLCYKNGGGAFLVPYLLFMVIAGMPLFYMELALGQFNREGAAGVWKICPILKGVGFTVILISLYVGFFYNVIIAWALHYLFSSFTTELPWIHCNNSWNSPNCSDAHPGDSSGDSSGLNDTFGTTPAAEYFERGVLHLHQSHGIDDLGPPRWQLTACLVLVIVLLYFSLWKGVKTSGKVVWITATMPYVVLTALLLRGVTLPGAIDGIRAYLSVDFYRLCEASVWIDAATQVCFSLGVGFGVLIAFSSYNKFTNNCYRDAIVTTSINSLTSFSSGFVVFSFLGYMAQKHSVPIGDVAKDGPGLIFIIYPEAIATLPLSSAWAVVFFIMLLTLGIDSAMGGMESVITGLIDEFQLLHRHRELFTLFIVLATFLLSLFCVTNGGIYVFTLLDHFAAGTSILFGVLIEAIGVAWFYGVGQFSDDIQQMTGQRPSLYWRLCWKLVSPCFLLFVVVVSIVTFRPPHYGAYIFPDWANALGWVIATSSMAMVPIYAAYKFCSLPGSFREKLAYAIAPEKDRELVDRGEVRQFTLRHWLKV

Row | % of Control Specific Binding (mean of two tests) ([3H]BTCP 4 nM radioligand, mean of two tests) | level of inhibition in the dopamine transporter inhibitory assay | Compound
1 | 4.6% | extremely high level of inhibition | OC[C@@H](O)[C@@H](/C=C/c1ccc(O)cc1)c1ccc(O)cc1 [Agatharesinol, (2S,3S,4E)-3,5-bis(4-hydroxyphenyl)pent-4-ene-1,2-diol]
2 |  | extremely high level of inhibition | OC[C@@H](O)[C@@H](/C=C/c1ccc(O)cc1)c1ccc(O)c(O)c1 [Sequirin C, 4-[(1S,2E)-1-[(1S)-1,2-dihydroxyethyl]-3-(4-hydroxyphenyl)prop-2-en-1-yl]benzene-1,2-diol]

Row | Compound | % of Control Specific Binding (mean of two tests) ([3H]BTCP 4 nM radioligand, mean of two tests) | level of inhibition in the dopamine transporter inhibitory assay
3 | CC(C)=CCc1c(C2CCc3ccc(O)cc3O2)ccc(O)c1O (stereo in doubt) [Kazinol U, 4-[(2S)-7-hydroxy-3,4-dihydro-2H-chromen-2-yl]-3-(3-methylbut-2-enyl)benzene-1,2-diol] |  | high level of inhibition
